{"source": "patent US6426343B1", "about": "“Preparation and use of a specific GABA-Aα5 receptor ligand for treatment of Alzheimer's disease” (Merck Sharp & Dohme Ltd., priority 1995, dated 2002)", "key": {"[1]": {"target": "T1, α6β3γ2 (Homo sapiens, UniProt P18507+Q16445)", "T1 construct": "expressed in transfected cells", "T1 sequence (Q16445 20-453)": "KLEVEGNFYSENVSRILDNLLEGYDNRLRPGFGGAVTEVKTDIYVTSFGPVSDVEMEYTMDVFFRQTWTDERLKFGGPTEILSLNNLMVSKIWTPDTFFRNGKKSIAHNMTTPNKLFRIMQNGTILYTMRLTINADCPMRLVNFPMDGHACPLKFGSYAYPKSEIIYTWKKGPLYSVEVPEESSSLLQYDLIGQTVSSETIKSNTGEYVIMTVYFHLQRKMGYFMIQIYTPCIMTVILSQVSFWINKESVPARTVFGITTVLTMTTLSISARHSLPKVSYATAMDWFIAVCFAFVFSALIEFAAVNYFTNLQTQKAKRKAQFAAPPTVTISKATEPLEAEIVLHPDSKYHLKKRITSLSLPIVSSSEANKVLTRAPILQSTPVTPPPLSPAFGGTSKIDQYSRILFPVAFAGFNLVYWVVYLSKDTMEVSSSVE", "T1 sequence (P28472 26-473 partner)": "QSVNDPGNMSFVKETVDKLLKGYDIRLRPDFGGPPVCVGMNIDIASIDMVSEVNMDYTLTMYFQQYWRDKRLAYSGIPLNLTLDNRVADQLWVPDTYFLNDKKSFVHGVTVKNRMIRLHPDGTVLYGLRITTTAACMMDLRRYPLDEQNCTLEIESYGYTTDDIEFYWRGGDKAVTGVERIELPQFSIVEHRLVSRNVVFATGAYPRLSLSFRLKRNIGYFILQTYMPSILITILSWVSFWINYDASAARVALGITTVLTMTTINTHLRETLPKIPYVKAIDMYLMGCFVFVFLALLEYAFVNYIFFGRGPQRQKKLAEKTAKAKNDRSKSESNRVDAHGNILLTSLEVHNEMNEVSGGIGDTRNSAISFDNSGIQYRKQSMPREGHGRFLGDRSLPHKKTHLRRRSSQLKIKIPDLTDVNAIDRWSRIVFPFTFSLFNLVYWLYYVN", "T1 sequence (P18507 40-467 isoform P18507-1 limits assumed)": "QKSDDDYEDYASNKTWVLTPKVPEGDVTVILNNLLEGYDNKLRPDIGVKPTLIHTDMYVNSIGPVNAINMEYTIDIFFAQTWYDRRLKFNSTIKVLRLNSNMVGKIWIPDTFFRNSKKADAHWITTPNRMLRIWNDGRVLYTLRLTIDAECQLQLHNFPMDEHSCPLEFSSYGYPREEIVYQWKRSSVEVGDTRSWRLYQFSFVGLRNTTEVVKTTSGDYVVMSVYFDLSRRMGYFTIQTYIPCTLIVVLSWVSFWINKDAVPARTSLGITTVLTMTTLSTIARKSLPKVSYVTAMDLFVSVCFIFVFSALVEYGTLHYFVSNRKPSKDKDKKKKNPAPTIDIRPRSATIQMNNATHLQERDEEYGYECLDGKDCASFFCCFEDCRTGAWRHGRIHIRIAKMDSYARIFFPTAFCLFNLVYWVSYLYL", "assay": "Radioligand binding, membranes of stably transfected cells", "conditions": "[3H]Ro 15-4513 as radioligand; mean±SEM, 3-6 determinations; read-out: Ki α6β3γ2"}, "[2]": {"target": "T2, α5β3γ2 (Homo sapiens, UniProt P18507+P31644)", "T2 construct": "expressed in transfected cells", "T2 sequence (P31644 32-462)": "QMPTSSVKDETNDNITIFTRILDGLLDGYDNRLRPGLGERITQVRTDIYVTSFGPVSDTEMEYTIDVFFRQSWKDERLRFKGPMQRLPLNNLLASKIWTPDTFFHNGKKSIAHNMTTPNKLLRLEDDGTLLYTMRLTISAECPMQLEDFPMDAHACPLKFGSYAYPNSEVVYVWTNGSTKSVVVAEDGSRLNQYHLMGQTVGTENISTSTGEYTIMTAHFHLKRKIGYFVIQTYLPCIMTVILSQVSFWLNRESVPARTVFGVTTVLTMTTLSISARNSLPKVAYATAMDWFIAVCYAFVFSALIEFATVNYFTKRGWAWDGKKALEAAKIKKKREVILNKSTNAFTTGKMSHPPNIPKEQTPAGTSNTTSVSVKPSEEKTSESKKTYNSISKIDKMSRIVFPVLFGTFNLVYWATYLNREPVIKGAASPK", "T2 sequence (P28472 26-473 partner)": "as the sequence (P28472 26-473 partner) above", "T2 sequence (P18507 40-467 isoform P18507-1 limits assumed)": "as the sequence (P18507 40-467 isoform P18507-1 limits assumed) above", "assay": "Radioligand binding, membranes of stably transfected cells", "conditions": "[3H]Ro 15-1788 at twice Kd; mean±SEM, 3-6 determinations; read-out: Ki α5β3γ2"}, "[3]": {"target": "T3, α3β3γ2 (Homo sapiens, UniProt P18507+P34903)", "T3 construct": "expressed in transfected cells", "T3 sequence (P34903 29-492)": "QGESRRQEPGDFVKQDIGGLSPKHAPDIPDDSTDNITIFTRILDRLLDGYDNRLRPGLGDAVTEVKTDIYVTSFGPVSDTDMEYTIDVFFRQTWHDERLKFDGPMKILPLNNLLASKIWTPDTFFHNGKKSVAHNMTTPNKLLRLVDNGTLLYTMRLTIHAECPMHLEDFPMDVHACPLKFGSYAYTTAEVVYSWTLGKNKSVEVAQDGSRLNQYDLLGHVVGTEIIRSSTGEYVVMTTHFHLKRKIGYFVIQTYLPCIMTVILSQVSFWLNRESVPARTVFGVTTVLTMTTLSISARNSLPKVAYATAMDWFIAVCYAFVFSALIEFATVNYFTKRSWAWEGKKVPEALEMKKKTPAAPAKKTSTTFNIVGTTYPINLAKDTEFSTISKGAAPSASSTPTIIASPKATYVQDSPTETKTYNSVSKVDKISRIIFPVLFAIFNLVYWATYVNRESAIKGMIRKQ", "T3 sequence (P28472 26-473 partner)": "as the sequence (P28472 26-473 partner) above", "T3 sequence (P18507 40-467 isoform P18507-1 limits assumed)": "as the sequence (P18507 40-467 isoform P18507-1 limits assumed) above", "assay": "Radioligand binding, membranes of stably transfected cells", "conditions": "[3H]Ro 15-1788 at twice Kd; mean±SEM, 3-6 determinations; read-out: Ki α3β3γ2"}, "[4]": {"system": "α1 and α5-containing receptors", "conditions": "cited from earlier work"}, "[5]": {"conditions": "in vivo; cited from earlier work"}, "[6]": {"system": "male Sprague Dawley rats", "assay": "Pro-convulsant testing, acute treatment, PTZ infusion", "format": "in vivo, rat", "conditions": "10.0 mg/kg IP 30 min prior to PTZ infusion; post hoc tests", "experimental": "Sixty naive male Sprague Dawley rats (225-265 g) housed in groups of four with food and water freely available, served as subjects. The rats were assigned to one of six groups and given: Vehicle or 0.5, 1.0, 2.0, 4.0 mg/kg of […] or 10.0 mg/kg of the non-selective receptor inverse agonist, CGS 8216, a known pro-convulsant agent. Vehicle, FG 8094 or CGS 8216 was administered IP 30 min prior to an infusion of the convulsant, pentylenetetrazole (PTZ, 40 mg/ml). PTZ was infused into the tail vein of the rat at the rate of 1.0 ml/min. The latency to clonic and tonic seizure were recorded and the threshold to each was calculated using the equation: Threshold dose=infusion rate (ml/s)×PTZ (mg/ml)×(1000/rats weight)×latency(s)."}}}
{"smiles": "CCOC(=O)c1ncn2c1CN(C)C(=O)c1cc(N=[N+]=[N-])ccc1-2", "note": "[Ro 15-4513, reference compound]", "values": [{"measurement": "Ki", "setting": "[1]", "value": "6.5 ± 0.6", "unit": "nM"}, {"measurement": "Ki", "setting": "[2]", "value": "0.24 ± 0.05", "unit": "nM"}, {"measurement": "Ki", "setting": "[3]", "value": "1.28 ± 0.06", "unit": "nM"}]}
{"smiles": "Cc1ccc(-c2nc3ccc(C)cn3c2CC(=O)N(C)C)cc1", "note": "[zolpidem]", "values": [{"measurement": "relative affinity α1 versus α5-containing receptors", "setting": "[4]", "value": "greater anfinity for α1 than for α5-containing receptors"}]}
{"smiles": "COC(=O)c1cc2c(cn1)[nH]c1ccccc12", "note": "[β-CCM]", "values": [{"measurement": "spatial learning in the Morris watermaze", "setting": "[5]", "value": "enhanced spatial learning"}]}
{"smiles": "O=C1C2C=Nc3ccccc3C2=NN1c1ccccc1", "note": "(stereo not shown) [CGS 8216, reference compound]", "values": [{"measurement": "threshold dose of PTZ to tonic seizures", "setting": "[6]", "value": "significantly lowered the threshold doses to tonic seizures"}]}
{"smiles": "Cc1nnc2ccc(-c3cccc(C(F)(F)F)c3)nn12", "note": "[CL 218,872]", "values": [{"measurement": "relative affinity α1 versus α5-containing receptors", "setting": "[4]", "value": "greater anfinity for α1 than for α5-containing receptors"}]}
